The values that follow come from patent publication US9206195B2, “Dihydrothienopyrimidines” (Boehringer Ingelheim International GmbH, priority 2011, dated 2015).

This test relates to Aβ42 production (γ-secretase) in H4 neuroglioma cells stably expressing the human APP695 isoform. Put plainly: Screening for preferential inhibition of Aβ42 vs. total Aβ production in H4 neuroglioma cells (Meso Scale Discovery electrochemiluminescence assays on supernatant). Conditions: for IC50: 22 hours incubation, Aβ42 in supernatant, read-out: Aβ42 cellular IC50; for Ratio Aβ(total)/Aβ42 (Aβ total IC50/Aβ42 IC50): higher ratio = more specific inhibition of Aβ42 over Aβ total. The class given is cell-based. The protocol:
Cells were plated out to near confluency. The compounds to be tested were received as 10 mM stocks in 100% DMSO. A dilution series was initially generated in 100% DMSO and then diluted 200-fold in cell culture media such that the tested concentration range was 30 μM to 0.1 nM and the final DMSO concentration was 0.5%. The diluted compounds were incubated with the cells for 22 hours in an incubator at 37° C. and 5% CO2. Aβ42 as well as Aβ total levels were then measured post-incubation from the supernatant of the cells. Aβ42 levels were determined using a specific electrochemiluminescence assay provided by Meso Scale Discovery (Catalog #L21CA-1) according to the manufacturer's protocol. Aβ total levels were likewise determined using a specific electrochemiluminescence assay provided by Meso Scale Discovery (Catalog #L21ZA-1) according to the manufacturer's protocol.
In order to absolutely define the described compounds as modulators of γ-Secretase as opposed to simply inhibitors of γ-Secretase, measurements of not only Aβ42 but also Aβ total are performed.

The term IC50 denotes the concentration that gives 50% inhibition. Take `COc1cc(Nc2nc3c(c(NC4CCCC4)n2)SC2(CCC2)C3)ccc1-n1cnc(C)c1` [Example 1]: the IC50 amounted to 190 nM and the “Ratio Aβ(total)/Aβ42 (Aβ total IC50/Aβ42 IC50)” value (“Ratio Aβ(total)/Aβ42” for short) is reported as 37.

Turning to `Cc1ncc(-c2ccc(Nc3nc4c(c(N(C)C)n3)SC3(CCC3)C4)cn2)o1` [Example 2], the IC50 is 520 nM and the “Ratio Aβ(total)/Aβ42” value amounted to 51.

With `COc1cc(Nc2nc3c(c(N4CCCCC4)n2)SC2(CCC2)C3)ccc1-n1cnc(C)c1` [Example 3], the IC50 stood at 90 nM and the “Ratio Aβ(total)/Aβ42” value worked out at 85.

For `COc1cc(Nc2nc3c(c(N(C)C)n2)SC2(CCC2)C3)ccc1-n1cnc(C)c1` [Example 4], the IC50 was 130 nM and the “Ratio Aβ(total)/Aβ42” value is 50.

In the case of `COc1cc(Nc2nc3c(c(NC4CCCC4)n2)[S+]([O-])C2(CCC2)C3)ccc1-n1cnc(C)c1` (centres unmarked) [Example 5], the IC50 is 220 nM and the “Ratio Aβ(total)/Aβ42” value is listed as 54.

For the molecule `COc1cc(Nc2nc3c(c(N4CCOCC4)n2)SC2(CCC2)C3)ccc1-n1cnc(C)c1` [Example 6], the IC50 was determined as 140 nM and the “Ratio Aβ(total)/Aβ42” value was found to be 55.

In the case of `COc1cc(Nc2nc3c(c(N(C)C)n2)SC2(CCC2)C3)ccc1-c1cnc(C)o1` [Example 7], the half-maximal inhibitory concentration (IC50) came out at 100 nM and the “Ratio Aβ(total)/Aβ42” value amounted to 242.

Regarding `COc1cc(Nc2nc3c(c(N4CCOCC4)n2)[S+]([O-])C2(CCC2)C3)ccc1-n1cnc(C)c1` (centres unmarked) [Example 8], the IC50 stood at 3250 nM and the “Ratio Aβ(total)/Aβ42” value is recorded as over 9.

Consider `COc1cc(Nc2nc(C)c3c(n2)CC2(CCC2)S3)ccc1-n1cnc(C)c1` [Example 10], for which the half-maximal inhibitory concentration (IC50) turned out to be 130 nM and the “Ratio Aβ(total)/Aβ42” value was 110.

With `COc1cc(Nc2nc(C)c3c(n2)CC2(CCC2)[S+]3[O-])ccc1-n1cnc(C)c1` (centres unmarked) [Example 11], the IC50 stood at 1550 nM and the “Ratio Aβ(total)/Aβ42” value turned out to be 19.

As for `COc1cc(Nc2nc3c(c(N(C)C)n2)SC2(CCCCC2)C3)ccc1-n1cnc(C)c1` [Example 12], the IC50 is 120 nM and the “Ratio Aβ(total)/Aβ42” value was 61.

As for `COc1cc(Nc2nc3c(c(N4CCCCC4)n2)SC2(CCCCC2)C3)ccc1-n1cnc(C)c1` [Example 13], the IC50 is 130 nM and the “Ratio Aβ(total)/Aβ42” value came to 57.

On to `COc1cc(Nc2nc3c(c(N4CCCCC4)n2)[S+]([O-])C2(CCCCC2)C3)ccc1-n1cnc(C)c1` (centres unmarked) [Example 14], for which the IC50 was 120 nM and the “Ratio Aβ(total)/Aβ42” value amounted to 100.

Turning to `COc1cc(Nc2nc3c(c(N(C)C)n2)[S+]([O-])C2(CCCCC2)C3)ccc1-n1cnc(C)c1` (centres unmarked) [Example 15], the IC50 amounted to 300 nM and the “Ratio Aβ(total)/Aβ42” value was determined as 61.

As for `COc1cc(Nc2nc3c(c(N4CCCCC4)n2)SC2(CCOCC2)C3)ccc1-n1cnc(C)c1` [Example 16], the IC50 came out at 820 nM and the “Ratio Aβ(total)/Aβ42” value is over 36.

With `COc1cc(Nc2nc3c(c(N4CCCCC4)n2)[S+]([O-])C2(CCOCC2)C3)ccc1-n1cnc(C)c1` (centres unmarked) [Example 17], the IC50 came to 530 nM and the “Ratio Aβ(total)/Aβ42” value stood at 51.

Take `COc1cc(Nc2nc3c(c(C(C)C)n2)SC2(CCCCC2)C3)ccc1-n1cnc(C)c1` [Example 18]: the IC50 worked out at 7590 nM and the “Ratio Aβ(total)/Aβ42” value was determined as 2.

On to `Cc1cn(-c2ccc(Nc3nc4c(c(N(C)C)n3)SC3(CCC3)C4)cc2C#N)cn1` [Example 19], for which the IC50 is 370 nM and the “Ratio Aβ(total)/Aβ42” value turned out to be 55.

Consider `Cc1cc(-c2ccc(Nc3nc4c(c(N(C)C)n3)SC3(CCC3)C4)cc2)ccn1` [Example 20], for which the IC50 worked out at 1380 nM and the “Ratio Aβ(total)/Aβ42” value was found to be 8.

For the molecule `COc1cc(Nc2nc3c(c(C(C)C)n2)[S+]([O-])C2(CCCCC2)C3)ccc1-n1cnc(C)c1` (centres unmarked) [Example 21], the IC50 is 19700 nM and the “Ratio Aβ(total)/Aβ42” value was 1.

For the molecule `Cc1cc(-c2ccc(Nc3nc4c(c(N(C)C)n3)[S+]([O-])C3(CCC3)C4)cc2)ccn1` (centres unmarked) [Example 22], the IC50 was 770 nM and the “Ratio Aβ(total)/Aβ42” value came to 12.

Consider `Cc1cn(-c2ccc(Nc3nc4c(c(N(C)C)n3)[S+]([O-])C3(CCC3)C4)cc2C#N)cn1` (centres unmarked) [Example 23], for which the IC50 is 1190 nM and the “Ratio Aβ(total)/Aβ42” value turned out to be 25.
